In ChEMBL document CHEMBL4033720, “Discovery of novel cyclic peptide inhibitors of dengue virus NS2B-NS3 protease with antiviral activity” (Bioorg Med Chem Lett, 2017):
pEC50, pIC50: −log10 of the molar value.

Assays:
[1] = Stability assessed as dengue virus 2 NS2B-NS3 protease-mediated compound degradation at 200 uM in presence of […] incubated for 0 to 22.5 hrs by LC-MS method; type: ADME; settings: dengue virus type 2, 200 µM
dengue virus type 2 = assay: Antiviral activity against dengue virus 2 infected in BHK21 cells assessed as inhibition of virus-induced cytopathic effect after 4 days by resazurin dye based method; type: functional, cell-based; settings: Dengue virus, BHK-21, 96 h; read-out: EC50
[2] = Inhibition of dengue virus 2 NS2B-NS3 protease pre-incubated for 10 mins before Boc-Gly-Arg-Arg-peptidyl-4-methylcoumaryl-7-amide substrate addition and measured after 2 hrs by fluorescence based assay; design: species or system dengue virus type 2
[3] = Toxicity in BHK21 cells assessed a reduction in cell viability after 4 days by resazurin dye based method; design: species or system Mesocricetus auratus, BHK-21; settings: hamster
[4] = Stability assessed as dengue virus 2 NS2B-NS3 protease-mediated compound degradation at 200 uM in presence of 100 nM enzyme incubated for 24 hrs by LC-MS method; type: ADME; settings: dengue virus type 2, 24 h
[5] = Stability assessed as dengue virus 2 NS2B-NS3 protease-mediated compound degradation at 200 uM in presence of […] incubated for 22.5 hrs by LC-MS method; type: ADME; settings: dengue virus type 2, 22.5 h

SMILES | Stability [1] | pEC50 (dengue virus type 2) | pIC50 [2] | CC50 at 96 h [3] [µM] | Stability [4] | Stability [5]
C[C@@H]1NC(=O)[C@H](CCCCN)NC(=O)[C@H](CCCNC(=N)N)NC(=O)[C@H](CCCNC(=N)N)NC(=O)[C@@H](CCCNC(=N)N)NC(=O)[C@@H](Cc2ccccc2)NC(=O)[C@H](Cc2cccc3ccccc23)NC(=O)[C@H](CCc2ccccc2)NC1=O | Unstable | 4.93 | 5.77 | 134 | Stable | 
C[C@@H]1NC[C@H](CCCCN)NC(=O)[C@H](CCCNC(=N)N)NC(=O)[C@H](CCCNC(=N)N)NC(=O)[C@@H](CCCNC(=N)N)NC(=O)[C@@H](Cc2ccccc2)NC(=O)[C@H](Cc2cccc3ccccc23)NC(=O)[C@H](CCc2ccccc2)NC1=O |  | 4.94 | 5.68 | 129 |  | Stable
